Test results taken from patent publication US20250375461A1, “IDENTIFICATION OF A NEW POTENT INHIBITOR OF MYCOBACTERIAL GROWTH” (priority 2024, published 2025).
≈ marks a conversion by molar mass, not a printed value. Read-outs that look alike come from different tables or passages of the source.

Legend:
[1] = system: M. avium; test: MIC against M. avium; assay type: cell-based; details: Mycobacterium avium
[2] = system: E. coli K12; test: Activity against E. coli K12 (normal membrane); assay type: cell-based
Method: (§1) In FIG. 1, […]=0.5×MIC. […] Magnification is 1000×. The compound BI.aada also has an MIC of […] against the gram-negative E. coli WO0153, which has a leaky outer membrane, and no activity against E. coli K12, which has a normal membrane. […] The stubby phenotype is similar to that observed with NAG-thiazoline (lytic transglycosylase inhibitor) with E. coli. In FIG. 3, purple: no growth; pink: bacterial growth; and MIC determined as lowest concentration that inhibits growth: 50 μM.

[3] = system: M. smegmatis; test: Microscopy of M. smegmatis in presence of BI.aada; assay type: cell-based
Method: as §1

[4] = system: E. coli WO0153; test: MIC assay: E. coli WO0153 (leaky outer membrane); assay type: cell-based
Method: as §1

[5] = system: M. absescus; test: MIC against M. absescus; assay type: cell-based
[6] = system: M. smegmatis; test: MIC assay: M. smegmatis with BI.aada; assay type: cell-based; details: Mycolicibacterium smegmatis
Method: FIG. 4, FIG. 5, and FIG. 6 show enlarged views of MIC Assay: M. smegmatis with BI.aada.
as §1

[7] = system: E. coli WO0153; test: Microscopy of E. coli WO0153 in presence of BI.aada; assay type: cell-based
Method: as §1

[8] = system: B. cereus; test: Standard bactericidal assay (colony counts), B. cereus; assay type: cell-based
Method: The library was initially screened against all test organisms at a single concentration (250 μM) (ESIt). This high initial concentration was chosen as many soluble derivatives of PG bind to bacterial autolysins with KD values in the high micromolar range.^53 Compounds showing at least 40% inhibition in growth were selected for further investigation. […] We identified two compounds that inhibited the growth of Bacillus cereus and Bacillus subtilis in the micromolar range (FIG. 9). […] Both BI.abcb and BI.fgba were screened in a standard bactericidal assay.^54 Briefly, B. subtilis and B. cereus were grown in either the absence or presence of inhibitor (at the MIC) for 4 hours.
The cells were harvested, washed and subject to serial dilution prior to plating on nutrient broth agar.

[9] = system: Bacillus cereus; test: Resazurin microtiter whole cell assay, MIC, B. cereus; assay type: cell-based
Method: Each Ugi reaction was carried out using either propargyl amine or propiolic acid as the alkyne component to provide either propionamides or N-propargyl amides as the diamide products. While Ugi-reactions can sometimes require prolonged reaction times, we identified conditions that reduced the reaction time to 4-5 hours at elevated temperature and in many cases proceeded to completion, enabling use of the Ugi product directly in the next reaction.^49-51 The Ugi-derived terminal alkynes were then subjected to a copper accelerated azide-alkyne coupling reaction using a redox couple of copper powder and copper (II) sulfate. To further facilitate synthesis of the library we simplified the purification of the compounds by using the alkyne building blocks in excess for the copper accelerated azide-alkyne coupling reaction. This ensured complete consumption of the azido sugar 1, and the unreacted alkyne residue could be easily removed using a silica plug after the reaction, eliminating the need for column chromatography. Removal of trace copper salts from the reaction was carried out by incubating the reaction solution with a commercially available copper chelating resin prior to purification using the silica plug. The library of GNTs was screened for its ability to inhibit the growth of a panel of different Gram-positive bacteria. […]

[10] = system: E. coli; details: NAG thiazoline treatment; cited from earlier work
[11] = system: Gram-negative bacteria; details: cited from earlier work

SMILES: CCCCNC(=O)C(C(C)C)N(CC(c1ccccc1)c1ccccc1)C(=O)c1cn(C2OC(CO)[C@@H](O)C(O)C2NC(C)=O)nn1 (stereo partly drawn) [BI.aada]
- MIC [1]: < 0.5 µM
- activity against E. coli K12 [2]: no activity
- phenotype in FIG. 1 ([3]; 25 nM=0.5×MIC, magnification 1000×): aberrant division occurring along side wall
- cell morphology (microscopy) ([3]; M. smegmatis in presence of BI.aada): altered cell morphology
- MIC ([4]; Escherichia coli, WO0153, read-out: MIC determined as lowest concentration that inhibits growth): 50 µM (≈ 32.5 µg/mL)
- MIC ([4]; Escherichia coli, E. coli WO0153, leaky outer membrane, read-out: MIC): 70 µM (≈ 45.6 µg/mL)
- MIC ([4]; Gram negative E. coli WO0153, Feature 16): 70 µM (≈ 45.6 µg/mL)
- MIC [5]: < 0.5 µM
- MIC ([5]; Feature 15): < 0.5 µM
- MIC [6]: 0.05 µM (≈ 0.0325 µg/mL)
- cell morphology (microscopy) ([7]; E. coli WO0153 in presence of BI.aada): altered cell morphology
- phenotype in FIG. 2 ([7]; sub-MIC treated E. coli WO153, 50 µM BI.aada, compared to control): clumping phenotype

SMILES: COc1ccc(C(C(=O)NCc2ccccc2)N(Cc2ccccc2)C(=O)c2cn(C3OC(CO)C(O)C(O)C3NC(C)=O)nn2)cc1 (stereo not drawn) [BI.abcb]
- nature of antibacterial action ([8]; colony counts similar to controls): bacteriostatic
- Colony counts for growth in the presence of compound ([8]; inhibitor at the MIC, 4 hours): 7.00±1.70×10^8 cfu mL^−1
- MIC [9]: 60 µM (≈ 39.5 µg/mL)

SMILES: CC1=N[C@@H]2[C@@H](O)[C@H](O)[C@@H](CO)O[C@@H]2S1 [NAG thiazoline]
- effect on E. coli cells [10]: formation of shorter cells without affecting cell viability
- minimum inhibitory concentration in whole cell assays [11]: do not demonstrate a measurable minimum inhibitory concentration

SMILES: CC(=O)N[C@H]1[C@H](O[C@H]2C[C@@H](C(=O)NCCS(=O)(=O)O)N[C@@H]2CO)O[C@H](CO)[C@@H](OS(=O)(=O)O)[C@@H]1O [bulgecin A]
- minimum inhibitory concentration in whole cell assays [11]: do not demonstrate a measurable minimum inhibitory concentration
